Measured values: PubChem BioAssay AID256 (DTP/NCI, 2004)
Several values for one entry are separate records, joined by “and”; a condition that tells them apart may be missing. Equal values may be shown once. Toxic doses and inconclusive results are not listed. How the source made its calls: active means survival T/C of 150% or more; inactive means T/C below 125% in these data.

System: CD2F1 mice, L1210 leukemia ip, survival T/C
Test: NCI In Vivo Anticancer Drug Screen. Data for tumor model L1210 Leukemia (intraperitoneal) in CD2F1 (CDF1) mice
Settings: higher = longer survival
Outline: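 Implant tumor; dose compound or vehicle; measure endpoint in both groups; report treated divided by control.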

[1] = endpoint: median survival time, dose: 25.0 mg/kg/injection, schedule: Q04DX003 (ip), vehicle: saline
[2] = endpoint: median survival time, dose: 50.0 mg/kg/injection, schedule: Q04DX003 (ip), vehicle: saline
[3] = endpoint: median survival time, dose: 100.0 mg/kg/injection, schedule: Q04DX003 (ip), vehicle: saline
[4] = endpoint: median survival time, dose: 200.0 mg/kg/injection, schedule: Q04DX003 (ip), vehicle: saline
[5] = endpoint: mean survival time, dose: 100.0 mg/kg/injection, schedule: Q01DX001 (ip), vehicle: saline with Tween-80
[6] = endpoint: mean survival time, dose: 100.0 mg/kg/injection, schedule: Q01DX009 (ip), vehicle: saline with Tween-80
[7] = endpoint: mean survival time, dose: 200.0 mg/kg/injection, schedule: Q01DX001 (ip), vehicle: saline with Tween-80
[8] = endpoint: mean survival time, dose: 200.0 mg/kg/injection, schedule: Q01DX009 (ip), vehicle: saline with Tween-80
[9] = endpoint: mean survival time, dose: 400.0 mg/kg/injection, schedule: Q01DX001 (ip), vehicle: saline with Tween-80
[10] = endpoint: mean survival time, dose: 400.0 mg/kg/injection, schedule: Q01DX009 (ip), vehicle: saline with Tween-80
[11] = endpoint: mean survival time, dose: 100.0 mg/kg/injection, schedule: Q01DX009 (ip), vehicle: saline
[12] = endpoint: mean survival time, dose: 100.0 mg/kg/injection, schedule: Q04DX003 (ip), vehicle: saline
[13] = endpoint: mean survival time, dose: 200.0 mg/kg/injection, schedule: Q04DX003 (ip), vehicle: saline
[14] = endpoint: mean survival time, dose: 100.0 mg/kg/injection, schedule: Q04DX002 (ip), vehicle: other
[15] = endpoint: mean survival time, dose: 200.0 mg/kg/injection, schedule: Q04DX002 (ip), vehicle: other
[16] = endpoint: mean survival time, dose: 400.0 mg/kg/injection, schedule: Q04DX002 (ip), vehicle: other
[17] = endpoint: mean survival time, dose: 400.0 mg/kg/injection, schedule: Q04DX003 (ip), vehicle: saline

Measured: T/C

O=[N+]([O-])O.S=C([SH2+])[n+]1ccccc1.S=C([SH2+])[n+]1ccccc1.[NH-]C1CCCCC1[NH-].[Pt+4]
inactive: endpoint: median survival time, dose: 3.12 mg/kg/injection, schedule: Q04DX003 (ip), vehicle: saline 101 % of control | endpoint: median survival time, dose: 6.25 mg/kg/injection, schedule: Q04DX003 (ip), vehicle: saline 109 % of control | endpoint: median survival time, dose: 12.5 mg/kg/injection, schedule: Q04DX003 (ip), vehicle: saline 100 % of control | [1] 90 % of control | [2] 95 % of control | [3] 106 % of control | [4] 109 % of control

CCOC(=O)C(C)(C)Oc1ccc(Cl)cc1
inactive: endpoint: mean survival time, dose: 12.5 mg/kg/injection, schedule: Q01DX009 (ip), vehicle: saline with Tween-80 100 % of control and 105 % of control | endpoint: mean survival time, dose: 25.0 mg/kg/injection, schedule: Q01DX009 (ip), vehicle: saline with Tween-80 97 % of control and 98 % of control | endpoint: mean survival time, dose: 50.0 mg/kg/injection, schedule: Q01DX009 (ip), vehicle: saline with Tween-80 103 % of control and 104 % of control | [5] 94 % of control | [6] 100 % of control and 101 % of control and 103 % of control | [7] 91 % of control | [8] 100 % of control and 101 % of control and 102 % of control | [9] 94 % of control | [10] 100 % of control and 104 % of control and 109 % of control

COc1ccc(CN(C)CCO)cc1OC
inactive: [1] 100 % of control | [2] 100 % of control | [3] 90 % of control | [4] 100 % of control

CCOC(=O)c1cnc(N(C)C)nc1SC(=N)N
inactive: endpoint: mean survival time, dose: 50.0 mg/kg/injection, schedule: Q01DX009 (ip), vehicle: saline 102 % of control | [11] 118 % of control | [12] 106 % of control | [13] 91 % of control

Cc1ccc(S(=O)(=O)OCC2C(COS(=O)(=O)c3ccc(C)cc3)C3CCC2C2C3C3C2C2(C)C(=O)C3(C)C(c3ccccc3)=C2c2ccccc2)cc1 (stereo not drawn)
inactive: [14] 102 % of control | [15] 102 % of control | [16] 111 % of control

CC1(CCOC2CCCCO2)NC(=O)NC1=O (stereo not drawn)
inactive: endpoint: mean survival time, dose: 100.0 mg/kg/injection, schedule: Q01DX001 (ip), vehicle: saline sonified 102 % of control | [6] 112 % of control | endpoint: mean survival time, dose: 200.0 mg/kg/injection, schedule: Q01DX001 (ip), vehicle: saline sonified 100 % of control | [8] 103 % of control | endpoint: mean survival time, dose: 400.0 mg/kg/injection, schedule: Q01DX001 (ip), vehicle: saline sonified 100 % of control | [10] 103 % of control

CS(=O)(=O)c1nccc2ccccc12
inactive: [12] 90 % of control | [13] 88 % of control | [17] 95 % of control

O=C1C(CO)(CO)CCC1(CO)CO
inactive: [11] 91 % of control | endpoint: mean survival time, dose: 200.0 mg/kg/injection, schedule: Q01DX009 (ip), vehicle: saline 93 % of control | endpoint: mean survival time, dose: 400.0 mg/kg/injection, schedule: Q01DX009 (ip), vehicle: saline 98 % of control

O=C(OCCNc1ccc([N+](=O)[O-])cc1[N+](=O)[O-])c1ccccc1
inactive: [14] 101 % of control | [15] 108 % of control | [16] 96 % of control

CCCC(C#N)(CCCl)c1ccccc1 (stereo not drawn)
inactive: endpoint: mean survival time, dose: 100.0 mg/kg/injection, schedule: Q04DX003 (ip), vehicle: saline with Tween-80 101 % of control | endpoint: mean survival time, dose: 200.0 mg/kg/injection, schedule: Q04DX003 (ip), vehicle: saline with Tween-80 101 % of control | endpoint: mean survival time, dose: 400.0 mg/kg/injection, schedule: Q04DX003 (ip), vehicle: saline with Tween-80 96 % of control

CCOc1ccc2nc([NH-])sc2c1.CCOc1ccc2nc([NH-])sc2c1.[Cl][Pt+2][Cl]
inactive: endpoint: mean survival time, dose: 3.13 mg/kg/injection, schedule: Q04DX003 (ip), vehicle: distilled water + Tween-80 96 % of control | endpoint: mean survival time, dose: 6.25 mg/kg/injection, schedule: Q04DX003 (ip), vehicle: distilled water + Tween-80 96 % of control | endpoint: mean survival time, dose: 12.5 mg/kg/injection, schedule: Q04DX003 (ip), vehicle: distilled water + Tween-80 96 % of control | endpoint: mean survival time, dose: 25.0 mg/kg/injection, schedule: Q04DX003 (ip), vehicle: distilled water + Tween-80 95 % of control | endpoint: mean survival time, dose: 50.0 mg/kg/injection, schedule: Q04DX003 (ip), vehicle: distilled water + Tween-80 98 % of control | endpoint: mean survival time, dose: 100.0 mg/kg/injection, schedule: Q04DX003 (ip), vehicle: distilled water + Tween-80 101 % of control | endpoint: mean survival time, dose: 200.0 mg/kg/injection, schedule: Q04DX003 (ip), vehicle: distilled water + Tween-80 96 % of control

O=[N+]([O-])c1ccc(N/N=C(\COc2ccccc2)c2ccccc2)c([N+](=O)[O-])c1
inactive: endpoint: mean survival time, dose: 37.5 mg/kg/injection, schedule: Q01DX001 (ip), vehicle: saline with Tween-80 98 % of control | endpoint: mean survival time, dose: 75.0 mg/kg/injection, schedule: Q01DX001 (ip), vehicle: saline with Tween-80 97 % of control | endpoint: mean survival time, dose: 150.0 mg/kg/injection, schedule: Q01DX001 (ip), vehicle: saline with Tween-80 97 % of control

CCC(=O)O[C@H]1CC[C@H]2[C@@H]3[C@@H](C)CC4=CC(=O)CC[C@]4(C)[C@H]3CC[C@]12C
inactive: [5] 91 % of control | [7] 94 % of control | [9] 94 % of control

CC12CCC(=O)C1O2 (stereo not drawn)
inactive: endpoint: mean survival time, dose: 12.5 mg/kg/injection, schedule: Q04DX002 (ip), vehicle: saline with Tween-80 103 % of control | endpoint: mean survival time, dose: 25.0 mg/kg/injection, schedule: Q04DX002 (ip), vehicle: saline with Tween-80 100 % of control | endpoint: mean survival time, dose: 50.0 mg/kg/injection, schedule: Q04DX002 (ip), vehicle: saline with Tween-80 100 % of control

Nc1nc2c(ncn2C2CC(O)C(CO)O2)c(=O)n1N (stereo not drawn)
inactive: endpoint: mean survival time, dose: 75.0 mg/kg/injection, schedule: Q01DX001 (ip), vehicle: saline 97 % of control | endpoint: mean survival time, dose: 150.0 mg/kg/injection, schedule: Q01DX001 (ip), vehicle: saline 100 % of control

C[N+]12CCN(CC1)CC2
inactive: [12] 102 % of control | [13] 104 % of control | [17] 104 % of control

Cc1cc(NCCCCCCNc2cc(C)[n+](C)c3c(Cl)cccc23)c2cccc(Cl)c2[n+]1C
inactive: endpoint: mean survival time, dose: 12.5 mg/kg/injection, schedule: Q01DX009 (ip), vehicle: Klucel (hydroxypropylcellulose) (HPC) 98 % of control | endpoint: mean survival time, dose: 25.0 mg/kg/injection, schedule: Q01DX009 (ip), vehicle: Klucel (hydroxypropylcellulose) (HPC) 98 % of control | endpoint: mean survival time, dose: 50.0 mg/kg/injection, schedule: Q01DX009 (ip), vehicle: Klucel (hydroxypropylcellulose) (HPC) 94 % of control

CC(C)N1CC(COc2cccc3ccccc23)OP1(=O)N(CCCl)CCCl (stereo not drawn)
inactive: endpoint: mean survival time, dose: 31.25 mg/kg/injection, schedule: Q01DX001 (ip), vehicle: distilled water + Tween-80 101 % of control | endpoint: mean survival time, dose: 62.5 mg/kg/injection, schedule: Q01DX001 (ip), vehicle: distilled water + Tween-80 101 % of control | endpoint: mean survival time, dose: 125.0 mg/kg/injection, schedule: Q01DX001 (ip), vehicle: distilled water + Tween-80 95 % of control and 98 % of control and 101 % of control | endpoint: mean survival time, dose: 250.0 mg/kg/injection, schedule: Q01DX001 (ip), vehicle: distilled water + Tween-80 93 % of control and 103 % of control and 111 % of control | endpoint: mean survival time, dose: 500.0 mg/kg/injection, schedule: Q01DX001 (ip), vehicle: distilled water + Tween-80 90 % of control and 110 % of control | endpoint: mean survival time, dose: 1000.0 mg/kg/injection, schedule: Q01DX001 (ip), vehicle: distilled water + Tween-80 113 % of control and 93 % of control

Cc1ccc(P(=S)(c2ccccc2)c2ccccc2)c2ccccc12
inactive: endpoint: mean survival time, dose: 100.0 mg/kg/injection, schedule: Q01DX001 (ip), vehicle: saline 104 % of control | endpoint: mean survival time, dose: 200.0 mg/kg/injection, schedule: Q01DX001 (ip), vehicle: saline 101 % of control | endpoint: mean survival time, dose: 400.0 mg/kg/injection, schedule: Q01DX001 (ip), vehicle: saline 95 % of control
